Where “and” joins values, the source holds several entries; their conditions need not be identical. Equal values may be shown once.
Test: Single dose oral capsule pharmacokinetics of BHV-3500 in dogs (plasma LC-MS/MS)
Type: in vivo, beagle dogs
Set-up: key to t1/2 / Tmax / Cmax / AUC0-4 hr: X = no plasma exposure
Details: for increase of plasma level versus no vehicle (Group 4): Group 5, 50 mg with Vehicle 6
Method: The pharmacokinetics (PK) of BHV-3500 after a single oral capsule of BHV-3500 in dogs were investigated.
After each dose, blood samples (approximately 3 mL from the jugular vein) for determination of plasma levels of BHV-3500 were obtained from of each dog at six time points (pre-dose; 15, 30, and 60 minutes and 2 and 4 hours post-dose. EDTA was used as the anticoagulant. Plasma samples were frozen at approximately −70′C until analyzed.
For the determination of BHV-3500 in plasma, a 50 μL aliquot from each sample was transferred into the appropriate well of a 96-well plate to which 10 μL of 50% acetonitrile (ACN) in water was added, followed by 250 μL of internal standard solution (10 ng/mL BHV-3500-d8 in ACN). After sealing the plate and vortexing for approximately 5 minutes, the plate was centrifuged at 4,000 rpm for 10 minutes at 4±4° C. A portion (100 μL) of the resulting supernatant was transferred to into the appropriate well (containing 300 μL 0.15% formic acid in water) of another 96-well plate. This plate was sealed and its contents mixed prior to instrumental analysis.
Freshly prepared BHV-3500 standard curves and QC samples were analyzed along with the study samples. Instrument calibrators were prepared by adding 10 μL of a stock BHV-3500 solution to 50 μL of blank dog plasma. Blank dog plasma was sourced from BioIVT (Hicksville, NY) and stored frozen at −20° C. Nominal calibrator concentrations ranged from 2.00 to 200 ng/mL. QC samples were prepared at concentrations of 6.00, 50.0 and 150 ng/mL. Calibrators and QC samples were processed for analysis following the extraction procedure described above.
Calibrator, QC and study samples were analyzed under LC-S/MS instrument conditions detailed in Table 7.
Calibration curves were calculated from the linear regression (weighting factor of 1/x2) of the analyte to internal standard peak area ratios versus the analyte concentrations. Concentrations of analyte in the samples were determined using the peak area ratios and the regression parameters of the calibration curves.
Individual animal plasma BHV-3500 concentration data at scheduled (nominal) sampling times were analyzed using the non-compartmental model f r extravascular administration with Phoenix WinNonlin software (Version 8.1; Certara, Princeton, NJ).
Elimination rate constant values (λz) were calculated by log-linear regression on data points of the terminal phase (using Phoenix WinNonlin's Best Fit Lambda Z Calculation Method option) when allowed by the data; the plasma elimination half-life (t1/2) was calculated as ln(2)/λz. Area under the plasma concentration-time curve values from time zero to the concentration at the 4 hour time point (AUC0-4 hr) were calculated by the linear-up/log-down trapezoidal rule.
Nominal dose levels were used for PK analysis. The PK parameters listed below were evaluated (as applicable and when allowed by the data). • Elimination half-life (t1/2) • Time of occurrence of maximum plasma concentration (Tmax) • Maximum plasma concentration (Cmax) • Area under plasma concentration-time curve [0 to the 4 hour time point; AUC0-4hr]

[1] = Group 1, oral capsule, 20 mg BHV-3500, no vehicle, average
[2] = Group 1, oral capsule, 20 mg BHV-3500, no vehicle, median
[3] = Group 3, oral capsule, 20 mg BHV-3500 in 25 mg DDM, individual dogs
[4] = Group 5, oral capsule, 50 mg BHV-3500 in 900 mg vehicle of Formulation 2 (SEDDS excipients), individual dogs

Cc1cc(C[C@@H](NC(=O)N2CCC(c3cc4ccccc4[nH]c3=O)CC2)C(=O)N2CCN(C3CCN(C)CC3)CC2)cc2cn[nH]c12 [BHV-3500, (R)—N-(3-(7-methyl-1H indazol-5-yl)-1-(4-(1-methylpiperidin-4-yl)piperazin-1-yl)-1-oxopropan-2-yl)-4-(2-oxo-1,2 dihydroquinolin-3-yl)piperidine-1-carboxamide]
plasma levels at all time points (Group 1, oral capsule, 20 mg BHV-3500, no vehicle): BQL (BQL = below quantitation limit (2.0 ng/mL))
BHV-3500 Concentration in Dog Plasma (Group 1, oral capsule, 20 mg BHV-3500, no vehicle, 0.25 h post-dose, average): BQL (BQL = below quantitation limit (2.0 ng/mL))
BHV-3500 Concentration in Dog Plasma (Group 1, oral capsule, 20 mg BHV-3500, no vehicle, 0.25 h post-dose, individual dogs): BQL (BQL = below quantitation limit (2.0 ng/mL))
BHV-3500 Concentration in Dog Plasma (Group 1, oral capsule, 20 mg BHV-3500, no vehicle, 0.5 h post-dose, average): BQL (BQL = below quantitation limit (2.0 ng/mL))
BHV-3500 Concentration in Dog Plasma (Group 1, oral capsule, 20 mg BHV-3500, no vehicle, 0.5 h post-dose, individual dogs): BQL (BQL = below quantitation limit (2.0 ng/mL))
BHV-3500 Concentration in Dog Plasma (Group 1, oral capsule, 20 mg BHV-3500, no vehicle, 1 h post-dose, average): BQL (BQL = below quantitation limit (2.0 ng/mL))
BHV-3500 Concentration in Dog Plasma (Group 1, oral capsule, 20 mg BHV-3500, no vehicle, 1 h post-dose, individual dogs): BQL (BQL = below quantitation limit (2.0 ng/mL))
BHV-3500 Concentration in Dog Plasma (Group 1, oral capsule, 20 mg BHV-3500, no vehicle, 2 h post-dose, average): BQL (BQL = below quantitation limit (2.0 ng/mL))
BHV-3500 Concentration in Dog Plasma (Group 1, oral capsule, 20 mg BHV-3500, no vehicle, 2 h post-dose, individual dogs): BQL (BQL = below quantitation limit (2.0 ng/mL))
BHV-3500 Concentration in Dog Plasma (Group 1, oral capsule, 20 mg BHV-3500, no vehicle, 4 h post-dose, average): BQL (BQL = below quantitation limit (2.0 ng/mL))
BHV-3500 Concentration in Dog Plasma (Group 1, oral capsule, 20 mg BHV-3500, no vehicle, 4 h post-dose, individual dogs): BQL (BQL = below quantitation limit (2.0 ng/mL))
AUC0-4 hr [1]: X
Cmax [1]: X
Tmax [2]: X
t1/2 [2]: X
BHV-3500 Concentration in Dog Plasma (Group 2, oral capsule, 20 mg BHV-3500 in 900 mg vehicle of Formulation 2 (SEDDS excipients), 0.25 h post-dose, average): BQL (BQL = below quantitation limit (2.0 ng/mL))
BHV-3500 Concentration in Dog Plasma (Group 2, oral capsule, 20 mg BHV-3500 in 900 mg vehicle of Formulation 2 (SEDDS excipients), 0.25 h post-dose, individual dogs): BQL (BQL = below quantitation limit (2.0 ng/mL))
BHV-3500 Concentration in Dog Plasma (Group 2, oral capsule, 20 mg BHV-3500 in 900 mg vehicle of Formulation 2 (SEDDS excipients), 0.5 h post-dose, average): BQL (BQL = below quantitation limit (2.0 ng/mL))
BHV-3500 Concentration in Dog Plasma (Group 2, oral capsule, 20 mg BHV-3500 in 900 mg vehicle of Formulation 2 (SEDDS excipients), 0.5 h post-dose, individual dogs): BQL (BQL = below quantitation limit (2.0 ng/mL))
BHV-3500 Concentration in Dog Plasma (Group 2, oral capsule, 20 mg BHV-3500 in 900 mg vehicle of Formulation 2 (SEDDS excipients), 1 h post-dose, individual dogs): BQL (BQL = below quantitation limit (2.0 ng/mL))
BHV-3500 Concentration in Dog Plasma (Group 2, oral capsule, 20 mg BHV-3500 in 900 mg vehicle of Formulation 2 (SEDDS excipients), 2 h post-dose, individual dogs): BQL (BQL = below quantitation limit (2.0 ng/mL)) and 19.4 ng/mL and 8.94 ng/mL
BHV-3500 Concentration in Dog Plasma (Group 2, oral capsule, 20 mg BHV-3500 in 900 mg vehicle of Formulation 2 (SEDDS excipients), 4 h post-dose, individual dogs): BQL (BQL = below quantitation limit (2.0 ng/mL))
Cmax (Group 2, oral capsule, 20 mg BHV-3500 in 900 mg vehicle of Formulation 2 (SEDDS excipients), individual dogs): 19.4 ng/mL and 8.94 ng/mL
BHV-3500 Concentration in Dog Plasma (Group 3, oral capsule, 20 mg BHV-3500 in 25 mg DDM, 0.25 h post-dose, average): BQL (BQL = below quantitation limit (2.0 ng/mL))
BHV-3500 Concentration in Dog Plasma (Group 3, oral capsule, 20 mg BHV-3500 in 25 mg DDM, 0.25 h post-dose, individual dogs): BQL (BQL = below quantitation limit (2.0 ng/mL))
BHV-3500 Concentration in Dog Plasma (Group 3, oral capsule, 20 mg BHV-3500 in 25 mg DDM, 0.5 h post-dose, individual dogs): BQL (BQL = below quantitation limit (2.0 ng/mL))
BHV-3500 Concentration in Dog Plasma (Group 3, oral capsule, 20 mg BHV-3500 in 25 mg DDM, 1 h post-dose, individual dogs): BQL (BQL = below quantitation limit (2.0 ng/mL))
BHV-3500 Concentration in Dog Plasma (Group 3, oral capsule, 20 mg BHV-3500 in 25 mg DDM, 2 h post-dose, individual dogs): 9.60 ng/mL and BQL (BQL = below quantitation limit (2.0 ng/mL)) and 28.2 ng/mL
BHV-3500 Concentration in Dog Plasma (Group 3, oral capsule, 20 mg BHV-3500 in 25 mg DDM, 4 h post-dose, individual dogs): BQL (BQL = below quantitation limit (2.0 ng/mL))
Cmax [3]: 9.60 ng/mL and 14.0 ng/mL and 28.2 ng/mL
Tmax [3]: 30 min
BHV-3500 Concentration in Dog Plasma (Group 4, oral capsule, 50 mg BHV-3500, no vehicle, 0.25 h post-dose, average): BQL (BQL = below quantitation limit (2.0 ng/mL))
BHV-3500 Concentration in Dog Plasma (Group 4, oral capsule, 50 mg BHV-3500, no vehicle, 0.25 h post-dose, individual dogs): BQL (BQL = below quantitation limit (2.0 ng/mL))
BHV-3500 Concentration in Dog Plasma (Group 4, oral capsule, 50 mg BHV-3500, no vehicle, 0.5 h post-dose, average): BQL (BQL = below quantitation limit (2.0 ng/mL))
BHV-3500 Concentration in Dog Plasma (Group 4, oral capsule, 50 mg BHV-3500, no vehicle, 0.5 h post-dose, individual dogs): BQL (BQL = below quantitation limit (2.0 ng/mL))
BHV-3500 Concentration in Dog Plasma (Group 4, oral capsule, 50 mg BHV-3500, no vehicle, 1 h post-dose, individual dogs): 4.25 ng/mL and 3.55 ng/mL
BHV-3500 Concentration in Dog Plasma (Group 4, oral capsule, 50 mg BHV-3500, no vehicle, 2 h post-dose, individual dogs): 4.35 ng/mL and 6.61 ng/mL
BHV-3500 Concentration in Dog Plasma (Group 4, oral capsule, 50 mg BHV-3500, no vehicle, 4 h post-dose, average): BQL (BQL = below quantitation limit (2.0 ng/mL))
BHV-3500 Concentration in Dog Plasma (Group 4, oral capsule, 50 mg BHV-3500, no vehicle, 4 h post-dose, individual dogs): BQL (BQL = below quantitation limit (2.0 ng/mL))
Cmax (Group 4, oral capsule, 50 mg BHV-3500, no vehicle, individual dogs): 4.35 ng/mL and 6.61 ng/mL
increase of plasma level versus no vehicle (Group 4) (1 hour post-dose): 3.4 ×
increase of plasma level versus no vehicle (Group 4) (2 hours post-dose): 6.6 ×
BHV-3500 Concentration in Dog Plasma (Group 5, oral capsule, 50 mg BHV-3500 in 900 mg vehicle of Formulation 2 (SEDDS excipients), 0.25 h post-dose, average): BQL (BQL = below quantitation limit (2.0 ng/mL))
BHV-3500 Concentration in Dog Plasma (Group 5, oral capsule, 50 mg BHV-3500 in 900 mg vehicle of Formulation 2 (SEDDS excipients), 0.25 h post-dose, individual dogs): BQL (BQL = below quantitation limit (2.0 ng/mL))
BHV-3500 Concentration in Dog Plasma (Group 5, oral capsule, 50 mg BHV-3500 in 900 mg vehicle of Formulation 2 (SEDDS excipients), 0.5 h post-dose, average): BQL (BQL = below quantitation limit (2.0 ng/mL))
BHV-3500 Concentration in Dog Plasma (Group 5, oral capsule, 50 mg BHV-3500 in 900 mg vehicle of Formulation 2 (SEDDS excipients), 0.5 h post-dose, individual dogs): BQL (BQL = below quantitation limit (2.0 ng/mL))
BHV-3500 Concentration in Dog Plasma (Group 5, oral capsule, 50 mg BHV-3500 in 900 mg vehicle of Formulation 2 (SEDDS excipients), 1 h post-dose, individual dogs): 6.19 ng/mL and 5.55 ng/mL and 22.7 ng/mL
BHV-3500 Concentration in Dog Plasma (Group 5, oral capsule, 50 mg BHV-3500 in 900 mg vehicle of Formulation 2 (SEDDS excipients), 2 h post-dose, individual dogs): 13.8 ng/mL and 6.90 ng/mL and 101 ng/mL
BHV-3500 Concentration in Dog Plasma (Group 5, oral capsule, 50 mg BHV-3500 in 900 mg vehicle of Formulation 2 (SEDDS excipients), 4 h post-dose, individual dogs): 6.88 ng/mL and 2.62 ng/mL and 14.4 ng/mL
AUC0-4 hr [4]: 32.8 ng·h/mL and 17.7 ng·h/mL and 161 ng·h/mL
Cmax [4]: 13.8 ng/mL and 6.90 ng/mL and 101 ng/mL
BHV-3500 Concentration in Dog Plasma (Group 6, oral capsule, 50 mg BHV-3500 in 25 mg DDM, 0.25 h post-dose, average): BQL (BQL = below quantitation limit (2.0 ng/mL))
BHV-3500 Concentration in Dog Plasma (Group 6, oral capsule, 50 mg BHV-3500 in 25 mg DDM, 0.25 h post-dose, individual dogs): BQL (BQL = below quantitation limit (2.0 ng/mL))
BHV-3500 Concentration in Dog Plasma (Group 6, oral capsule, 50 mg BHV-3500 in 25 mg DDM, 0.5 h post-dose, average): BQL (BQL = below quantitation limit (2.0 ng/mL))
BHV-3500 Concentration in Dog Plasma (Group 6, oral capsule, 50 mg BHV-3500 in 25 mg DDM, 0.5 h post-dose, individual dogs): BQL (BQL = below quantitation limit (2.0 ng/mL))
BHV-3500 Concentration in Dog Plasma (Group 6, oral capsule, 50 mg BHV-3500 in 25 mg DDM, 1 h post-dose, individual dogs): BQL (BQL = below quantitation limit (2.0 ng/mL))
